Test results published in patent US20180354909A1, “SUBSTITUTED BENZIMIDAZOLIUM, PYRIDO-IMIDAZOLIUM, OR PYRAZINO-IMIDAZOLIUM COMPOUNDS AS CHEMOTHERAPEUTICS” (The Board of Regents of the University of Texas System, priority 2015, published 2018).
“Also recorded” adds a separate entry of the source.

How the values were obtained:
[1] = tested on: astrocytes; assay: Cytotox testing (CellTiter-Glo) in astrocytes; format: cell-based
Protocol: (§1) Mut6 tumor cells were cultured in DMEM/F12 media supplemented by EGF (10 ng/mL), basic FGF (10 ng/mL), heparin (4 ug/mL), glucose (total 21 mM), NaHCO3 (113 μg/mL), Hepes (119 μg/mL), glutamine (2 mM), sodium pyruvate (1 mM), N2 supplement (ThermoFisher Gibco 17502-048, 100×, at 100-fold dilution), B27 supplement (ThermoFisher Gibco 12587-010, 50×, at 100-fold dilution), and penicillin/streptomycin (ThermoFisher, final 1%). Cells were maintained in Ultra-low attachment plate (Corning) as sphere-forming cells. For ATP assays and protein/RNA isolation, cells were plated into 96-well plates or 6-well plated that were coated with poly-lysine (Sigma P6407, 10 μg/mL in PBS, 4 hr at 37° C.) and laminin (ThermoFisher 23017015, ˜5 mg/L in PBS, overnight at 37° C.). MEFs and Astrocytes were cultured in DMEM supplemented with 10% FBS and 1% Penicillin/Streptomycin.
(§2) 2,000 cells were plated into each well of 96-well plates. About 3 hours later, cells were treated by 12M11, at 800-fold dilution (4 mM stock was diluted into 5 μM final concentration). Cells were further incubated for 4 days. CellTiter-Glo assay (Promega) was performed according to manufacturer's instructions, by adding 20 μL of reagent into each well. Luminescence signal was detected by the PolarStar plate reader (BMG Labtech). Experiments were performed in quadruplicate, and results are presented with mean average −/+ standard deviation. EC505 were calculated by GraphPad Prism6 software.

[2] = tested on: Mut6; assay: Cytotox testing (CellTiter-Glo ATP assay) in Mut6 cells; format: cell-based, mouse
How it was run: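 Mouse glioblastoma Mut6 neural stem-like cells were grown in EGF/bFGF/N2/B27 medium and plated at 2,000 cells/well on poly-lysine/laminin. About 3 h later they were treated with compound (5 μM final in the stated case) for 4 days. Viability was read as CellTiter-Glo luminescence in quadruplicate, with EC50s fitted.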

[3] = tested on: ATF4; assay: ATF4 western blot in Mut6 cells; format: cell-based, mouse
Protocol: (§3) Mut6 tumor cells and MEFs were treated by DMSO or 1 μM 12M11 for the indicated times. Cell lysate was prepared by RIPA buffer with phosphatase inhibitor (Thermo) and protease inhibitor (Roche). Antibodies are purchased from Santa Cruz (ATF4), Cell Signaling (pS6, S6, AMPK, and pAMPK), and Millipore (Gapdh).

[4] = tested on: DAOY (medulloblastoma) cells; assay: CellTiter-Glo cell viability in DAOY cells; format: cell-based
Protocol: The activity of compound 12M11 was tested against a variety of cancer cell lines (see FIG. 2A), including those are routinely used in the literature such as HeLa, DAOY, MCF7, 435 and HCC38 cells. […] Just as for MEF cells, without wishing to be bound by any theory, it is believed that the resistance of DAOY cells to the OxyPhos inhibitor 12M11 can be attributed to their higher ATP levels per cell (FIG. 13B) combined with lower intrinsic OxyPhos activity as assessed by TMRE staining (FIG. 13C).

[5] = tested on: oxidative phosphorylation complexes I-V; assay: Avidin agarose pull-down of Biotin-12M11 interacting proteins from Mut6 cells; format: binding, mouse; settings: Mut6 cell lysates
Protocol: To understand the unique selectivity of 12M11 to affect the viability of Mut6 cells, the precise molecular target(s) of 12M11 were determined. A 12M11 biotinylated variant (see Cpd 1.11, FIG. 16C) was generated to attempt to directly pull down interacting proteins. […] Mut6 cells were treated with 12M11, Biot-12M11, or pre-incubated with 12M11 followed by addition of Biot-12M11 (see FIG. 17 for a general schematic protocol). As indicated in the silver stain of a denaturing gel (FIG. 18A) with the pull down reactions, several bands that appear in the Biot-12M11 tract (Lane 2) are substantially diluted or absent in Lane 3 where the cells were pre-incubated with excess 12M11. […] The results from Mass-Spec analysis were as follows: 1) Lysate from Mut6 cells incubated with 12M11 alone yielded no proteins; 2) Lysate from Mut6 cells incubated with Biot-12M11 yielded 8 proteins (Atp5a1, Acaca, Hspa9, Hsp60, Decr1, Sdha, Pcca, and Atp5o; FIG. 19B). Two of the proteins, Acac and Pcca, were discounted as known to nonspecifically bind Biotin (Tong, 2005; Diacovich, et al., 2004; Kalousek, et al., 1980). The remaining 6 proteins all localize to the mitochondrion and 3 of the pulled down proteins are components of the oxidative phosphorylation complexes. […]

[6] = tested on: MEF; assay: Cytotox testing (CellTiter-Glo) in MEF; format: cell-based, mouse
Protocol: as §1
as §2, with “Experiments were performed in quadruplicate, and results are presented with mean average −/+ standard deviation.” left out

[7] = tested on: Mut6; assay: Change in ATP levels in Mut6 cells; format: cell-based, mouse; settings: Mut6, 2-6 hr
Protocol: Mut6 tumor cells or MEFs were plated into 96-well plates. One day later, Oligomyin (2 μM), Rotenone (200 nM), or 12M11 (1 μM) were added into each well and then ATP levels were measured by Cell-Titer Glo (Promega) after 2 hr, 4 hr, or 6 hr incubation. Each data is mean of six replicates with ± standard deviation.

[8] = tested on: Phospho-S6; assay: p-S6 western blot in Mut6 cells; format: cell-based, mouse
Protocol: as §3

Structure (SMILES): CCc1n(CC(=O)O[C@@H]2C[C@H](C)CC[C@H]2C(C)C)c2ccccc2[n+]1C.[Cl-] [Compound 12M11]
- activity against astrocytes [1]: no to minimal effect; also recorded: no activity; also recorded: uniquely resistant
- activity against Mut6 cells ([2]; CellTiter-Glo): specific nanomolar activity; also recorded: specific toxicity
- EC50 ([2]; Mus musculus, Mut6 cells, FIG. 1, read-out: potency): ~0.1 µM
- cell death on Mut6 cells ([2]; after six hours of exposure): irrevocable cell death
- ATF4 protein level [3]: activation
- sensitivity of DAOY cells [4]: resistance
- association with OxyPhos complex proteins (pull-down) [5]: excludes
- activity against MEF [6]: no to minimal effect; also recorded: no activity
- ATP levels (% change from basal) [7]: decrease significantly
- Phospho-S6 protein level [8]: down regulation
